Results published in PubChem BioAssay AID248 (DTP/NCI, 2004).
Several values for one entry are separate records, joined by “and”; a condition that tells them apart may be missing. Equal entries are not always repeated. Inconclusive results and toxic doses are left out.

Tested on: L1210 leukemia ip in BDF1 mice, survival T/C
Assay: NCI In Vivo Anticancer Drug Screen. Data for tumor model L1210 Leukemia (intraperitoneal) in B6D2F1 (BDF1) mice
Conditions: higher = longer survival
Method in brief: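 Value reflects the ratio of survival in compound-treated mice to survival in vehicle-treated controls, with both groups carrying the same transplanted tumor.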

Which results are given for `Nc1ncn(C2OC(CO)C(O)C2O)c(=O)n1` (stereo not given)?
T/C (endpoint: mean survival time, dose: 0.12 mg/kg/injection, schedule: Q01DX009 (ip), vehicle: saline): 111 % of control; T/C (endpoint: mean survival time, dose: 0.23 mg/kg/injection, schedule: Q01DX009 (ip), vehicle: saline): 101 % of control and 121 % of control; T/C (endpoint: mean survival time, dose: 0.5 mg/kg/injection, schedule: Q01DX009 (ip), vehicle: saline): 156 % of control; T/C (endpoint: mean survival time, dose: 0.75 mg/kg/injection, schedule: Q01DX009 (ip), vehicle: other): 161 % of control; T/C (endpoint: mean survival time, dose: 1.0 mg/kg/injection, schedule: Q01DX005 (oral), vehicle: saline): 114 % of control; T/C (endpoint: mean survival time, dose: 1.0 mg/kg/injection, schedule: Q## X008 (ip), vehicle: saline): 121 % of control; T/C (endpoint: mean survival time, dose: 1.0 mg/kg/injection, schedule: Q## X040 (oral), vehicle: saline): 105 % of control; T/C (endpoint: mean survival time, dose: 1.25 mg/kg/injection, schedule: Q01DX009 (ip), vehicle: saline): 170 % of control; T/C (endpoint: mean survival time, dose: 1.3 mg/kg/injection, schedule: Q03HX008 (ip), vehicle: saline): 171 % of control; T/C (endpoint: mean survival time, dose: 1.5 mg/kg/injection, schedule: Q01DX005 (ip), vehicle: clinical formulation): 150 % of control; T/C (endpoint: mean survival time, dose: 1.5 mg/kg/injection, schedule: Q01DX009 (ip), vehicle: water): 164 % of control and 166 % of control; T/C (endpoint: mean survival time, dose: 2.0 mg/kg/injection, schedule: Q01DX005 (oral), vehicle: saline): 124 % of control; T/C (endpoint: mean survival time, dose: 2.0 mg/kg/injection, schedule: Q01DX015 (ip), vehicle: other): 159 % of control; T/C (endpoint: mean survival time, dose: 2.0 mg/kg/injection, schedule: Q03HX008 (ip), vehicle: saline): 155 % of control; T/C (endpoint: mean survival time, dose: 2.0 mg/kg/injection, schedule: Q## X024 (ip), vehicle: saline): 151 % of control; T/C (endpoint: mean survival time, dose: 2.0 mg/kg/injection, schedule: Q## X040 (oral), vehicle: saline): 108 % of control; T/C (endpoint: mean survival time, dose: 2.3 mg/kg/injection, schedule: Q04DX002 (ip), vehicle: saline): 117 % of control and 123 % of control; T/C (endpoint: mean survival time, dose: 2.5 mg/kg/injection, schedule: Q01DX009 (ip), vehicle: carboxymethylcellulose (CMC)): 155 % of control; T/C (endpoint: mean survival time, dose: 3.0 mg/kg/injection, schedule: Q01DX001 (ip), vehicle: saline): 119 % of control; T/C (endpoint: mean survival time, dose: 3.0 mg/kg/injection, schedule: Q01DX005 (ip), vehicle: water): 150 % of control; T/C (endpoint: mean survival time, dose: 3.0 mg/kg/injection, schedule: Q01DX009 (ip), vehicle: saline with Tween-80): 111 % of control; T/C (endpoint: mean survival time, dose: 3.0 mg/kg/injection, schedule: Q01DX009 (oral), vehicle: saline): 158 % of control; T/C (endpoint: mean survival time, dose: 3.0 mg/kg/injection, schedule: Q03HX008 (ip), vehicle: saline): 170 % of control; T/C (endpoint: mean survival time, dose: 3.12 mg/kg/injection, schedule: Q01DX009 (ip), vehicle: saline): 164 % of control; T/C (endpoint: mean survival time, dose: 3.12 mg/kg/injection, schedule: Q04DX003 (ip), vehicle: water): 157 % of control and 160 % of control; T/C (endpoint: mean survival time, dose: 4.0 mg/kg/injection, schedule: Q## X024 (ip), vehicle: saline): 168 % of control; T/C (endpoint: mean survival time, dose: 6.0 mg/kg/injection, schedule: Q01DX005 (ip), vehicle: water): 112 % of control; T/C (endpoint: mean survival time, dose: 6.0 mg/kg/injection, schedule: Q01DX009 (ip), vehicle: clinical formulation): 103 % of control; T/C (endpoint: mean survival time, dose: 6.0 mg/kg/injection, schedule: Q01DX009 (ip), vehicle: other): 104 % of control; T/C (endpoint: mean survival time, dose: 6.0 mg/kg/injection, schedule: Q01DX009 (ip), vehicle: saline): 98 % of control; T/C (endpoint: mean survival time, dose: 6.0 mg/kg/injection, schedule: Q01DX009 (ip), vehicle: water): 94 % of control; T/C (endpoint: mean survival time, dose: 6.0 mg/kg/injection, schedule: Q01DX009 (oral), vehicle: saline): 172 % of control; T/C (endpoint: mean survival time, dose: 6.0 mg/kg/injection, schedule: Q## X008 (ip), vehicle: saline): 156 % of control; T/C (endpoint: mean survival time, dose: 7.2 mg/kg/injection, schedule: Q01DX009 (ip), vehicle: saline): 111 % of control; T/C (endpoint: mean survival time, dose: 8.0 mg/kg/injection, schedule: Q01DX005 (oral), vehicle: saline): 164 % of control; T/C (endpoint: mean survival time, dose: 8.0 mg/kg/injection, schedule: Q## X040 (oral), vehicle: saline): 163 % of control; T/C (endpoint: mean survival time, dose: 10.0 mg/kg/injection, schedule: Q01DX009 (ip), vehicle: saline): 111 % of control; T/C (endpoint: mean survival time, dose: 12.0 mg/kg/injection, schedule: Q01DX001 (ip), vehicle: saline): 150 % of control; T/C (endpoint: mean survival time, dose: 12.0 mg/kg/injection, schedule: Q01DX005 (ip), vehicle: saline): 168 % of control; T/C (endpoint: mean survival time, dose: 12.0 mg/kg/injection, schedule: Q01DX009 (ip), vehicle: saline): 98 % of control; T/C (endpoint: mean survival time, dose: 12.0 mg/kg/injection, schedule: Q## X008 (ip), vehicle: saline): 161 % of control and 162 % of control; T/C (endpoint: mean survival time, dose: 12.5 mg/kg/injection, schedule: Q01DX001 (ip), vehicle: saline): 164 % of control; T/C (endpoint: mean survival time, dose: 12.5 mg/kg/injection, schedule: Q01DX005 (ip), vehicle: saline): 172 % of control; T/C (endpoint: mean survival time, dose: 22.0 mg/kg/injection, schedule: Q01DX001 (ip), vehicle: other): 153 % of control; T/C (endpoint: mean survival time, dose: 22.0 mg/kg/injection, schedule: Q01DX001 (ip), vehicle: saline): 160 % of control; T/C (endpoint: mean survival time, dose: 24.0 mg/kg/injection, schedule: Q01DX001 (ip), vehicle: saline): 158 % of control; T/C (endpoint: mean survival time, dose: 24.0 mg/kg/injection, schedule: Q01DX009 (ip), vehicle: saline): 93 % of control; T/C (endpoint: mean survival time, dose: 24.0 mg/kg/injection, schedule: Q## X008 (ip), vehicle: saline): 171 % of control; T/C (endpoint: mean survival time, dose: 25.0 mg/kg/injection, schedule: Q01DX001 (ip), vehicle: saline): 166 % of control and 168 % of control; T/C (endpoint: mean survival time, dose: 32.0 mg/kg/injection, schedule: Q01DX001 (oral), vehicle: saline): 112 % of control; T/C (endpoint: mean survival time, dose: 32.0 mg/kg/injection, schedule: Q## X003 (oral), vehicle: saline): 163 % of control; T/C (endpoint: mean survival time, dose: 32.0 mg/kg/injection, schedule: Q## X024 (oral), vehicle: saline): 173 % of control; T/C (endpoint: mean survival time, dose: 33.0 mg/kg/injection, schedule: Q01DX001 (ip), vehicle: saline): 153 % of control; T/C (endpoint: mean survival time, dose: 48.0 mg/kg/injection, schedule: Q01DX009 (ip), vehicle: saline): 102 % of control; T/C (endpoint: mean survival time, dose: 64.0 mg/kg/injection, schedule: Q01DX001 (oral), vehicle: saline): 111 % of control; T/C (endpoint: mean survival time, dose: 64.0 mg/kg/injection, schedule: Q## X003 (oral), vehicle: saline): 163 % of control and 164 % of control; T/C (endpoint: mean survival time, dose: 64.0 mg/kg/injection, schedule: Q## X008 (oral), vehicle: saline): 158 % of control; T/C (endpoint: mean survival time, dose: 69.0 mg/kg/injection, schedule: Q04DX002 (ip), vehicle: saline): 150 % of control; T/C (endpoint: mean survival time, dose: 75.0 mg/kg/injection, schedule: Q01DX001 (ip), vehicle: other): 168 % of control; T/C (endpoint: mean survival time, dose: 96.0 mg/kg/injection, schedule: Q01DX001 (ip), vehicle: saline): 174 % of control; T/C (endpoint: mean survival time, dose: 96.0 mg/kg/injection, schedule: Q## X003 (ip), vehicle: saline): 114 % of control; T/C (endpoint: mean survival time, dose: 100.0 mg/kg/injection, schedule: Q01DX001 (ip), vehicle: other): 162 % of control; T/C (endpoint: mean survival time, dose: 125.0 mg/kg/injection, schedule: Q01DX001 (ip), vehicle: saline): 151 % of control; T/C (endpoint: mean survival time, dose: 150.0 mg/kg/injection, schedule: Q01DX001 (ip), vehicle: saline): 154 % of control; T/C (endpoint: mean survival time, dose: 200.0 mg/kg/injection, schedule: Q01DX001 (ip), vehicle: other): 118 % of control; T/C (endpoint: mean survival time, dose: 256.0 mg/kg/injection, schedule: Q## X003 (oral), vehicle: saline): 171 % of control; T/C (endpoint: mean survival time, dose: 512.0 mg/kg/injection, schedule: Q## X003 (oral), vehicle: saline): 111 % of control; T/C (endpoint: mean survival time, dose: 768.0 mg/kg/injection, schedule: Q01DX001 (oral), vehicle: saline): 157 % of control; T/C (endpoint: median survival time, dose: 0.75 mg/kg/injection, schedule: Q01DX009 (ip), vehicle: saline): 160 % of control; T/C (endpoint: median survival time, dose: 0.78 mg/kg/injection, schedule: Q01DX009 (ip), vehicle: saline): 150 % of control; T/C (endpoint: median survival time, dose: 1.0 mg/kg/injection, schedule: Q01DX005 (ip), vehicle: saline): 120 % of control; T/C (endpoint: median survival time, dose: 1.3 mg/kg/injection, schedule: Q01DX009 (ip), vehicle: saline): 154 % of control and 159 % of control; T/C (endpoint: median survival time, dose: 2.0 mg/kg/injection, schedule: Q01DX005 (ip), vehicle: saline): 169 % of control; T/C (endpoint: median survival time, dose: 3.6 mg/kg/injection, schedule: Q01DX009 (ip), vehicle: saline): 100 % of control and 104 % of control; T/C (endpoint: median survival time, dose: 5.0 mg/kg/injection, schedule: Q01DX001 (ip), vehicle: saline): 121 % of control and 122 % of control; T/C (endpoint: median survival time, dose: 6.0 mg/kg/injection, schedule: Q01DX009 (ip), vehicle: saline): 110 % of control; T/C (endpoint: median survival time, dose: 8.0 mg/kg/injection, schedule: Q01DX005 (ip), vehicle: saline): 154 % of control; T/C (endpoint: median survival time, dose: 8.4 mg/kg/injection, schedule: Q01DX009 (ip), vehicle: saline): 99 % of control and 100 % of control; T/C (endpoint: median survival time, dose: 40.0 mg/kg/injection, schedule: Q01DX001 (ip), vehicle: saline): 153 % of control and 155 % of control; T/C (endpoint: median survival time, dose: 80.0 mg/kg/injection, schedule: Q01DX001 (ip), vehicle: saline): 151 % of control and 155 % of control

With `CC1=NN(c2ccccc2)C(=O)C1(Br)Br` as the molecule, how does the T/C (endpoint: mean survival time, dose: 100.0 mg/kg/injection, schedule: Q04DX003 (ip), vehicle: saline with Tween-80) read?
Its T/C is 96 % of control.

With `O=C1NC(=O)C2(CCc3ccc(N(CCCl)CCCl)cc32)N1` (stereo not given) as the molecule, how does the T/C (endpoint: median survival time, dose: 100.0 mg/kg/injection, schedule: Q01DX009 (ip), vehicle: Klucel (hydroxypropylcellulose) (HPC)) read?
The T/C was 105 % of control.

How did the T/C (endpoint: mean survival time, dose: 50.0 mg/kg/injection, schedule: Q04DX003 (ip), vehicle: saline) turn out when `CCOC(C[N+](C)(C)C)OCC` was run?
Its T/C is 93 % of control.

What about the T/C (endpoint: mean survival time, dose: 100.0 mg/kg/injection, schedule: Q04DX003 (ip), vehicle: saline) of the same molecule?
The T/C was 97 % of control.

What about the T/C (endpoint: mean survival time, dose: 200.0 mg/kg/injection, schedule: Q04DX003 (ip), vehicle: saline) of the same molecule?
Its T/C is 101 % of control.
